Results as given in ChEMBL document CHEMBL1142656, “Identification of 3-(acylamino)azepan-2-ones as stable broad-spectrum chemokine inhibitors resistant to metabolism in vivo” (2005).

What follows are molecules tested on THP-1 (assay: In vitro activity to inhibit MCP-1-induced leukocyte migration of THP-1 cells). Details: Homo sapiens, read-out: ED50 (the source's name).
Format: functional

| SMILES | EC50 |
| --- | --- |
| CCCCCCCCCCC(=O)N[C@@H](CCC(=O)O)C(N)=O | 15000 nM |
| C=CCCCCCCCCC(=O)N[C@@H]1CCC(=O)NC1=O | 250 nM |
| C=CCCCCCCCCC(=O)N[C@H]1CCCCNC1=O | 40 nM |
| CCCCCCCCCCC(=O)N[C@@H](CCC(=O)O)C(=O)O | 10000 nM |
| C#CCCCCCCCCC(=O)N[C@H]1CCCCNC1=O | 10 nM |
| CCCCCCCCCCC(=O)N[C@H]1CCCCNC1=O | 50 nM |
| CCCCCCCCCCC(=O)NC1CCC(=O)NC1=O (single isomer, unassigned) | 10 nM |
| C=CCCCCCCCCC(=O)N[C@H]1CCC(=O)N(C)C1=O | 33 nM |
| N[C@@H](CCCC(=O)O)C(=O)O [(S)-2-AMINOADIPIC ACID] | > 100000 nM |
| C=CCCCCCCCCC(=O)N[C@H]1CCC(=O)NC1=O | 5 nM |
| CCCCCCCCCCC(=O)N[C@H](CCC(N)=O)C(=O)O | 50000 nM |
| CCCCCCCCCCC(=O)N[C@H](CCC(=O)O)C(=O)O | 25000 nM |
| C=CCCCCCCCCC(=O)N[C@H]1CCNC1=O | 245 nM |
| N[C@H](CCC(=O)O)C(=O)O [D-GLUTAMATE] | > 100000 nM |
| C=CCCCCCCCCC(=O)N[C@H]1CCCNC1=O | 100 nM |
| CCCCCCCCCCC(=O)N[C@@H](CCC(N)=O)C(=O)O | 30000 nM |
| CCCCCCCCCCC(=O)N[C@H](CCC(=O)O)C(N)=O | 40000 nM |

Other lines, results leading:

| EC50 | SMILES |
| --- | --- |
| 3 nM | CCCCCC/C=C\CCCCCCCC(=O)N[C@H]1CCCCNC1=O |
| 15 nM | CCCCCCCCCCCC(=O)N[C@H]1CCCCNC1=O |
| 40 nM | CCCCCCCCCCCCCCCC(=O)N[C@@H]1CCCCNC1=O |
| 30 nM | CCCCCCCC/C=C\CCCCCCCC(=O)N[C@@H]1CCCCNC1=O |
| 5 nM | CCCCCCCCCCCCCC(=O)N[C@H]1CCCCNC1=O |
| 3 nM | CCCCCCCCCCCCCCCC(=O)N[C@H]1CCCCNC1=O |
| 3 nM | CCCCCCCC/C=C\CCCCCCCC(=O)N[C@H]1CCCCNC1=O |
